Test [1] addresses T1, kinesin binding to microtubules (Drosophila melanogaster, UniProt P17210).
T1 construct: kinesin heavy chain fragment containing amino acids 5-351 of the wild type protein; hexahistidine (C); made in house; host or cells: bacterial cells (IPTG induced)
T1 sequence (P17210 5-351): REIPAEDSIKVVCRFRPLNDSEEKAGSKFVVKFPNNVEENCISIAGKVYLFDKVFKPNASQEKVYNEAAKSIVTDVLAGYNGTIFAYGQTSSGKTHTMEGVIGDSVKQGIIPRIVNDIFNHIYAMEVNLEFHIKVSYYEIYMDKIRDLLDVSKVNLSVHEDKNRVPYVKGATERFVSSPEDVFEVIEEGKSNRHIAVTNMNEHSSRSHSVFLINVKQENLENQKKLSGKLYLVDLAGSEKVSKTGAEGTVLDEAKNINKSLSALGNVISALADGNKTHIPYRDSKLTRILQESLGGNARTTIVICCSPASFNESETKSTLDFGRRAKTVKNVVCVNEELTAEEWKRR
Kind of test: Kinesin-microtubule co-sedimentation assay with AMP-PNP. Particulars: co-sedimentation in the presence of AMP-PNP. As for the experimental part:
(§1) All kinetic and binding measurements were performed on a bacterially expressed Drosophila kinesin heavy chain fragment containing amino acids 5-351 of the wild type protein and a hexahistidine tag at the C-terminus. Protein was purified from the soluble fraction of IPTG induced bacterial cells by a single round of affinity chromatography on Ni—NTA-agarose (Qiagen), concentrated by microfiltration, and frozen in small aliquots in liquid nitrogen.
This was tested by performing a kinesin-microtubule co-sedimentation assay in the presence of a nonhydrolysable ATP analog, AMP-PNP, with or without adociasulfate.

For test [2], the target named is rabbit kidney ATPase. Kind of test: ATPase activity assay, specificity panel. The test is classed as biochemical. The conditions noted are these: highest used inhibitor concentration 136 μM, read-out: Concentration causing 50% inhibition of enzymatic activity (C50). The procedure:
(§2) One such ATPase assay is described in the examples below. In one preferred embodiment, the ATPase activity assay utilizes 0.3 M PCA (perchloric acid) and malachite green reagent (8.27 mM sodium molybdate II, 0.33 mM malachite green oxalate, and 0.8 mM Triton X-100). To perform the assay, 10 μL of reaction is quenched in 90 μl of cold 0.3 M PCA. Phosphate standards are used so data can be converted to mM inorganic phosphate released.
(§3) When all reactions and standards have been quenched in PCA, 100 μl of malachite green reagent is added to the to relevant wells in e.g., a microtiter plate. The mixture is developed for 10-15 minutes and the plate is read at an absorbance of 650 nm. If phosphate standards were used, absorbance readings can be converted to mM Pi and plotted over time.
(§4) […]

The target of test [3] is T2, kinesin (K-ADP state) (Drosophila melanogaster, UniProt P17210).
T2 construct: kinesin heavy chain fragment containing amino acids 5-351 of the wild type protein; hexahistidine (C); made in house; host or cells: bacterial cells (IPTG induced)
T2 sequence (P17210 5-351): T1 sequence (P17210 5-351)
The test is described as follows: ADP release from kinesin. The test is classed as biochemical. The conditions noted are these: varying concentrations of adociasulfate. The procedure: as §1
The percent of ADP released from the enzyme was determined by the methods of Hackney (see, e.g., Hackney (1994) J. Biol. Chem., […]: 16508-16511). Briefly, 80 μM kinesin was preincubated with α-^32PATP at room temperature for 15 min and than stored on ice. 1 μl aliquots of that mixture were diluted into 100 μl of “chase mix” containing 0.5 mg/ml pyruvate kinase, 2 mM phosphoenalpyruvate, and varying concentrations of adociasulfate. […] The amount of ADP that became accessible to pyruvate kinase and was converted to ATP was determined by a thin layer chromatography on PEI-cellulose followed by phosphoimager quantitation.
Microtubule binding to kinesin induced 1,000-fold stimulation of the basal ATPase rate, owing primarily to accelerated ADP release. […] The adociasulfate concentration at 50% of maximum burst is much higher than the K1 determined in steady state microtubule competition assays. […]

In test [4] the target is T3, basal kinesin ATPase (Drosophila melanogaster, UniProt P17210).
T3 construct: kinesin heavy chain fragment containing amino acids 5-351 of the wild type protein; hexahistidine (C); made in house; host or cells: bacterial cells (IPTG induced)
T3 sequence (P17210 5-351): T1 sequence (P17210 5-351)
Kind of test: Basal (non microtubule-stimulated) kinesin ATPase rate, coupled enzymatic assay. Particulars: absence of microtubules; up to 136 μM (the highest tested). It counts as biochemical. The procedure:
as §1
(§5) Initial rate measurements were done at room temperature using a malachite green assay (Geladopoulos et al. (1991) Anal. Biochem., 192: 112-116) modified to work in 96 well microtiter plates and scored on a plate reader at 650 nm. ATP concentration dependence and basal ATPase rate were determined by a coupled enzymatic assay with pyruvate kinase and lactate dehydrogenase monitoring changes in absorbance at 340 nm. Phosphate standards (650 μM-7 μM) were included with each reading.
In contrast, varying the ATP concentration had no effect on the overall shape of the kinetic curves. […] An additional argument against adociasulfate binding at the nucleotide pocket comes from the lack of an inhibitory effect on the basal, non microtubule-stimulated rate of the kinesin ATPases. If adociasulfate interfered with nucleotide binding, or locked the enzyme in a particular nucleotide-bound state, ATP turnover in the absence of microtubule should be decreased.

The target in test [5] is TI-γ. Kind of test: ATPase activity assay, specificity panel. The conditions noted are these: at 2 μM tubulin, read-out: Concentration causing 50% inhibition of enzymatic activity (C50). The test is classed as biochemical, Thermomyces lanuginosus. The procedure: as §2, §3
TI-γ (a kinesin superfamily member from the fungus Thermomyces lanuginosus) was adsorbed to a glass coverslip and supplemented with a mixture of microtubules, 2 mM Mg-ATP, and sponge extracts in DMSO (5% final concentration). Motility was scored visually on a Zeiss Axioplan microscope sat up for DIC and fitted with an Argus 10 video processor (Hamamatsu).
Initial rate measurements were done at room temperature using a malachite green assay (Geladopoulos et al. (1991) Anal. Biochem., 192: 112-116) modified to work in 96 well microtiter plates and scored on a plate reader at 650 nm. […]

Test [6] has as its target T4, microtubule stimulated ATPase of kinesin (Drosophila melanogaster, UniProt P17210).
T4 construct: kinesin heavy chain fragment containing amino acids 5-351 of the wild type protein; hexahistidine (C); made in house; host or cells: bacterial cells (IPTG induced)
T4 sequence (P17210 5-351): T1 sequence (P17210 5-351)
The test is described as follows: Microtubule-stimulated kinesin ATPase, steady state kinetics. The test is classed as biochemical. The procedure: as §1, §5
Extracts from 268 marine sponges were initially tested for their ability to disrupt normal behavior of microtubules in a gliding motility assay. This screening method allowed immediate distinction between substances that affected microtubule movement and those that caused microtubule depolymerization or breakage. Active extracts from the initial screening were then tested for inhibition of the microtubule-stimulated kinesin ATPase.

In test [7] the target is Myosin II (EDTA). The test is described as follows: ATPase activity assay, specificity panel (EDTA activated ATPase). It counts as biochemical. Particulars: read-out: Concentration causing 50% inhibition of enzymatic activity (C50). The procedure: as §2, §3, §4

Regarding `CC1(C)CCC[C@]2(C)O[C@H]3CC[C@@]4(C)[C@@H](CC[C@]5(C)[C@@H]4CC[C@]4(C)c6c(OS(=O)(=O)O)ccc(OS(=O)(=O)O)c6C[C@@H]54)[C@]3(C)CC[C@@H]12` [adociasulfate], in test [1], the “Effect on binding of kinesin to microtubules” value is “abolished binding of kinesin to microtubules”. Also, the IC50 in test [2] is above 136 µM; in test [5], 2 µM; in test [7] it was 75 µM. The “ADP release from kinesin” value in test [3] is reported as “bursts of ADP release were observed”. Moreover, the “Effect on basal ATPase rate” value in test [4] is “did not inhibit the basal ATPase rate”. In addition, the Mode of inhibition result in test [6] (steady state kinetic measurements, varying microtubule concentration) is reported as “competitive with microtubules”. Moreover, the Vmax result in test [6] (varying ATP concentration, higher adociasulfate concentrations) is on record as “progressively lower”.

Values taken from patent US7252950B1, “Assays for detecting modulators of cytoskeletal function” (priority 1997, dated 2007).
